ChEMBL document CHEMBL1201862, “PubChem BioAssay data set” (2004)
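These data come from cells grown in 96-well plates and exposed to compound for 48 hours at five concentrations. At the GI50, growth is halved.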 Calls of active or inactive are those of the source. Cut-off read from the data, not from the text of the source: active = GI50 up to about 1.1 µM and inactive = higher.

Key:
Assay in all cases: growth of human tumour cells (NCI), 48 h
A549 = tested on: A549
COLO 205 = tested on: COLO 205
EKVX = tested on: EKVX
HCT-116 = tested on: HCT-116
HT-29 = tested on: HT-29
LOX IMVI = tested on: LOX IMVI
MDA-N = tested on: MDA-N
MOLT-4 = tested on: MOLT-4
NCI-H460 = tested on: NCI-H460
NCI-H522 = tested on: NCI-H522
RPMI-8226 = tested on: RPMI-8226
SF-295 = tested on: SF-295
SF-539 = tested on: SF-539
SK-OV-3 = tested on: SK-OV-3
SN12C = tested on: SN12C
SW-620 = tested on: SW-620
T47D = tested on: T47D
CAKI-1 = tested on: CAKI-1

Measured: GI50

Oc1ccc(CCNCc2cc3c(cc2Br)OCO3)cc1
inactive: A549 > 100 µM | COLO 205 18.8 µM | EKVX > 100 µM | HCT-116 61.7 µM | HT-29 52.8 µM | LOX IMVI 88.9 µM | MDA-N 68.2 µM | MOLT-4 32.6 µM | NCI-H460 57.8 µM | NCI-H522 39.4 µM | RPMI-8226 27.9 µM | SF-295 65.2 µM | SF-539 4.17 µM | SK-OV-3 51.8 µM | SN12C 66.8 µM | SW-620 > 100 µM | T47D 41.4 µM

CC(=O)OCC1OC(n2c(N)c(C#N)c(-c3cccc(Cl)c3)c(C#N)c2=S)C(OC(C)=O)C(OC(C)=O)C1OC(C)=O (stereo unspecified)
inactive: A549 24.3 µM | CAKI-1 26.8 µM | COLO 205 16.2 µM | EKVX 27.2 µM | HCT-116 22.4 µM | HT-29 24.5 µM | LOX IMVI 14.7 µM | MDA-N 19.1 µM | MOLT-4 11.9 µM | NCI-H460 24.8 µM | RPMI-8226 10.9 µM | SF-295 31.2 µM | SF-539 12.6 µM | SK-OV-3 20.7 µM | SN12C 37.6 µM | SW-620 32.7 µM | T47D 18.9 µM

CC1(C)CS(=O)(=O)CC(C)(C)C(=N/N)/C1=N\N
inactive: A549 > 100 µM | CAKI-1 > 100 µM | COLO 205 > 100 µM | EKVX > 100 µM | HCT-116 > 100 µM | HT-29 > 100 µM | LOX IMVI > 100 µM | MDA-N > 100 µM | NCI-H460 > 100 µM | NCI-H522 > 100 µM | SF-295 > 100 µM | SF-539 > 100 µM | SK-OV-3 > 100 µM | SN12C > 100 µM | SW-620 > 100 µM | T47D > 100 µM

CCOC(=O)CCSc1nc2ccc(I)cc2c(=O)n1Cc1ccccc1
inactive: A549 31.6 µM | CAKI-1 2.67 µM | COLO 205 12.4 µM | EKVX 22.3 µM | HCT-116 18.8 µM | HT-29 34.4 µM | LOX IMVI 28.2 µM | MDA-N 25.7 µM | NCI-H460 22.6 µM | NCI-H522 10.7 µM | RPMI-8226 5.22 µM | SF-295 21.7 µM | SF-539 36.4 µM | SK-OV-3 > 69.8 µM | SN12C 31.8 µM | SW-620 41.1 µM | T47D 26.9 µM

C[N+]1(C)C2CC(OC(=O)C(CO)c3ccccc3)CC1C1OC12 (stereo unspecified)
inactive: A549 > 100 µM | CAKI-1 > 100 µM | COLO 205 > 100 µM | EKVX > 100 µM | HCT-116 > 100 µM | HT-29 > 100 µM | LOX IMVI > 100 µM | MDA-N > 100 µM | MOLT-4 > 100 µM | NCI-H522 > 100 µM | RPMI-8226 > 100 µM | SF-295 > 100 µM | SF-539 > 100 µM | SK-OV-3 > 100 µM | SN12C > 100 µM | SW-620 > 100 µM | T47D > 100 µM

CC(=O)OCC1OC(n2c(C)c(/N=N/c3ccccc3)c(C)c(C#N)c2=S)C(OC(C)=O)C(OC(C)=O)C1OC(C)=O (stereo unspecified)
inactive: A549 57.3 µM | CAKI-1 26.6 µM | COLO 205 86.3 µM | HCT-116 16.9 µM | HT-29 > 100 µM | LOX IMVI 39.6 µM | MDA-N > 100 µM | MOLT-4 > 100 µM | NCI-H460 39.8 µM | RPMI-8226 > 100 µM | SF-295 15 µM | SF-539 58.7 µM | SK-OV-3 22.6 µM | SN12C 81.5 µM | SW-620 > 100 µM | T47D > 100 µM

C1=N\CCNCC/N=C\c2ccc(cc2)OCc2cccc(n2)COc2ccc/1cc2
inactive: A549 > 100 µM | CAKI-1 > 100 µM | COLO 205 > 100 µM | EKVX > 100 µM | HCT-116 > 100 µM | HT-29 > 100 µM | MDA-N > 100 µM | MOLT-4 > 100 µM | NCI-H460 > 100 µM | NCI-H522 26.9 µM | RPMI-8226 > 100 µM | SF-295 24.7 µM | SF-539 47.1 µM | SK-OV-3 36.3 µM | SN12C > 100 µM | SW-620 > 100 µM | T47D > 100 µM

O=S(=O)(c1ccccc1)[C@H]1[C@@H]2O[C@@H]2C[C@@H]1O
inactive: A549 > 100 µM | CAKI-1 > 100 µM | COLO 205 > 100 µM | EKVX > 100 µM | HCT-116 > 100 µM | HT-29 > 100 µM | MDA-N > 100 µM | MOLT-4 > 100 µM | NCI-H460 > 100 µM | NCI-H522 > 100 µM | RPMI-8226 > 100 µM | SF-295 > 100 µM | SF-539 > 100 µM | SK-OV-3 > 100 µM | SN12C > 100 µM | SW-620 > 100 µM | T47D > 100 µM

CCCC/C=C/C/C=C/CCCCCCCCC(=O)OCC1CCCN2CCCCC12 (stereo unspecified)
inactive: A549 > 100 µM | CAKI-1 31 µM | COLO 205 93.3 µM | EKVX 54.6 µM | HCT-116 > 100 µM | HT-29 > 100 µM | LOX IMVI 76.9 µM | MDA-N > 100 µM | MOLT-4 > 100 µM | NCI-H460 > 100 µM | RPMI-8226 > 100 µM | SF-295 > 100 µM | SF-539 > 100 µM | SK-OV-3 > 100 µM | SN12C > 100 µM | SW-620 > 100 µM | T47D 12.8 µM

O=c1oc2ccccc2c2nc3ccccc3cc12
inactive: A549 99.8 µM | CAKI-1 33.8 µM | COLO 205 > 100 µM | EKVX 79.8 µM | HCT-116 40.2 µM | HT-29 99.5 µM | MDA-N > 100 µM | MOLT-4 > 100 µM | NCI-H460 37.8 µM | NCI-H522 46.2 µM | RPMI-8226 > 100 µM | SF-295 34.8 µM | SF-539 11.6 µM | SK-OV-3 51.9 µM | SN12C 99.1 µM | SW-620 > 100 µM | T47D > 100 µM

Cc1cc([C@H](C#N)c2nc3ccccc3s2)nc(Cl)n1
inactive: A549 14.8 µM | CAKI-1 4.51 µM | COLO 205 2.4 µM | EKVX 18.6 µM | HCT-116 3.22 µM | HT-29 3.88 µM | LOX IMVI 2.89 µM | MDA-N 3.55 µM | MOLT-4 5.5 µM | NCI-H460 3.45 µM | RPMI-8226 2.3 µM | SF-295 15.5 µM | SF-539 4.92 µM | SK-OV-3 5.66 µM | SN12C 3.42 µM | SW-620 3.04 µM | T47D 2.92 µM

COc1ccc(N2C(=O)CC(C3CC(C(C)(C)C)CCC3=O)C2=O)cc1 (stereo unspecified)
inactive: A549 > 100 µM | CAKI-1 > 100 µM | COLO 205 > 100 µM | EKVX > 100 µM | HCT-116 > 100 µM | HT-29 > 100 µM | MDA-N > 100 µM | MOLT-4 > 100 µM | NCI-H460 > 100 µM | NCI-H522 10.7 µM | RPMI-8226 > 100 µM | SF-539 > 100 µM | SK-OV-3 > 100 µM | SN12C > 100 µM | SW-620 > 100 µM | T47D > 100 µM
